Assay type in all cases: functional
The nature of experiment [1]: Inhibition of LPS-induced mouse B-lymphocyte proliferation. The result is expressed as relative IC50 i.e., IC50 of compound/all-trans retinoic acid IC50.
Experiment [2] can be described thus: Inhibition of LPS-induced mouse B-lymphocyte proliferation in relation to IC50 of all-trans retinoic acid.
Experiment [3] in a line: Compound was evaluated for its inhibition of LPS-induced mouse B-lymphocyte proliferation.
Experiment [4] can be described thus: Compound was evaluated for its inhibition of LPS-induced mouse B-lymphocyte proliferation. The result is expressed as relative IC50 i.e., IC50 of compound / All Trans Retinoic Acid IC50.

Data on 58 molecules can be found in ChEMBL document CHEMBL1135843, “A library construction of 2,5-disubstituted pyrrole compounds by using solid/solution-phase syntheses” (Bioorg Med Chem Lett, 2002).

`CCCc1cccc2cc(-c3ccc(-c4ccc(C(=O)O)s4)[nH]3)sc12`: the “Relative IC50” value in experiment [1] worked out at 600.

With `CCc1ccc(OC)c2cc(-c3ccc(-c4ccc(C(=O)O)o4)[nH]3)oc12`, the “Relative IC50” value in experiment [2] is given as more than 1000.

Take `Cc1ccc(C)c2oc(-c3ccc(-c4ccc(C(=O)O)cc4Br)[nH]3)cc12`: the “Relative IC50” value in experiment [1] was determined as 18.

Take `O=C(O)c1ccc2cc(-c3ccc(-c4cc5c(Cl)ccc(Cl)c5s4)[nH]3)ccc2c1`: the “Relative IC50” value in experiment [2] is more than 1000.

For the molecule `Cc1cc(C)c2oc(-c3ccc(-c4ccc(C(=O)O)cc4)[nH]3)cc2c1C`, the IC50 (as a rule, the concentration that inhibits the measured activity by half) in experiment [3] was found to be 2.2 nM. In other words, the single-digit nanomolar range.

Take `O=C(O)c1ccc(-c2ccc(-c3cc4cc(Cl)ccc4o3)[nH]2)s1`: the “Relative IC50” value in experiment [2] is more than 1000.

On to `Cc1ccc(C)c2oc(-c3ccc(-c4ccc(C(=O)O)cc4F)[nH]3)cc12`, for which the “Relative IC50” value in experiment [1] is recorded as 15.

As for `Cc1ccc(C)c2oc(-c3ccc(-c4cccc(C(=O)O)c4)[nH]3)cc12`, the “Relative IC50” value in experiment [1] stood at 2100.

As for `CCCc1ccc(OC)c2cc(-c3ccc(-c4ccc(C(=O)O)o4)[nH]3)oc12`, in experiment [2], the “Relative IC50” value is more than 1000.

As for `Cc1cc(-c2ccc(-c3cc4cc(Cl)cc(Cl)c4o3)[nH]2)c(C)cc1C(=O)O`, the “Relative IC50” value in experiment [2] is more than 1000.

Consider `COc1cc(C(=O)O)ccc1-c1ccc(-c2cc3c(Cl)ccc(Cl)c3o2)[nH]1`, for which, in experiment [1], the “Relative IC50” value worked out at 210.

`O=C(O)c1ccc(-c2ccc(-c3cc4cc(Cl)ccc4o3)[nH]2)c2ccccc12`: in experiment [2], the “Relative IC50” value is reported as more than 1000.

Take `O=C(O)c1ccc(-c2ccc(-c3cc4c(Cl)ccc(Cl)c4s3)[nH]2)c2ccccc12`: in experiment [2], the “Relative IC50” value was more than 1000.

In the case of `CCc1ccc(OC)c2cc(-c3ccc(-c4ccc(C(=O)O)s4)[nH]3)oc12`, in experiment [2], the “Relative IC50” value was more than 1000.

Turning to `O=C(O)c1ccc(-c2ccc(-c3cc4c(Cl)ccc(Cl)c4o3)[nH]2)c(Cl)c1`, the “Relative IC50” value in experiment [1] is listed as 240.

Take `CCc1ccc(OC)c2cc(-c3ccc(-c4ccc(C(=O)O)c5ccccc45)[nH]3)oc12`: the “Relative IC50” value in experiment [2] was more than 1000.

On to `Cc1ccc(Cl)c2sc(-c3ccc(-c4ccc(C(=O)O)c5ccccc45)[nH]3)cc12`, for which the “Relative IC50” value in experiment [2] is more than 1000.

Consider `Cc1ccc(Cl)c2oc(-c3ccc(-c4ccc5cc(C(=O)O)ccc5c4)[nH]3)cc12`, for which the “Relative IC50” value in experiment [2] was more than 1000.

As to `CCCc1ccc(OC)c2cc(-c3ccc(-c4cc(C)c(C(=O)O)cc4C)[nH]3)oc12`, in experiment [2], the “Relative IC50” value is more than 1000.

With `O=C(O)c1ccc(-c2ccc(-c3cc4c(Cl)ccc(Cl)c4o3)[nH]2)c(Br)c1`, in experiment [1], the “Relative IC50” value is given as 45.

In the case of `O=C(O)c1ccc(-c2ccc(-c3cc4ccc5ccccc5c4o3)[nH]2)c(Br)c1`, the “Relative IC50” value in experiment [1] is 1500.

On to `CCCc1cccc2cc(-c3ccc(-c4ccc5cc(C(=O)O)ccc5c4)[nH]3)oc12`, for which the “Relative IC50” value in experiment [2] is more than 1000.

As to `CCCc1ccc(OC)c2cc(-c3ccc(-c4ccc(C(=O)O)s4)[nH]3)oc12`, the “Relative IC50” value in experiment [2] is recorded as more than 1000.

For the molecule `Cc1ccc(C)c2oc(-c3ccc(-c4ccc(C(=O)O)c5ccccc45)[nH]3)cc12`, the “Relative IC50” value in experiment [2] is listed as more than 1000.

Turning to `Cc1ccc(C)c2oc(-c3ccc(-c4ccc(C(=O)O)s4)[nH]3)cc12`, the “Relative IC50” value in experiment [1] is recorded as 42.

`CCc1ccc(OC)c2cc(-c3ccc(-c4cc(C)c(C(=O)O)cc4C)[nH]3)oc12`: the “Relative IC50” value in experiment [2] is more than 1000.

In turn, `O=C(O)c1ccc(-c2ccc(-c3cc4c(Cl)ccc(Cl)c4o3)[nH]2)cc1` came in with a Relative IC50 in experiment [4] of 1.3.

Turning to `Cc1ccc(C)c2oc(-c3ccc(-c4ccc(C(=O)O)o4)[nH]3)cc12`, the “Relative IC50” value in experiment [2] is more than 1000.

On to `CCc1ccc(OC)c2cc(-c3ccc(-c4ccc(C(=O)O)cc4Br)[nH]3)oc12`, for which, in experiment [1], the “Relative IC50” value is given as 140.

Molecule `Cc1ccc(C)c2oc(-c3ccc(-c4ccc(C(=O)O)cc4)[nH]3)cc12` had a Relative IC50 in experiment [4] of 0.76.

For `Cc1cc(C)c2oc(-c3ccc(-c4ccc(C(=O)O)cc4Br)[nH]3)cc2c1C`, the “Relative IC50” value in experiment [1] turned out to be 42.

For the molecule `Cc1ccc(Cl)c2sc(-c3ccc(-c4ccc(C(=O)O)s4)[nH]3)cc12`, the “Relative IC50” value in experiment [1] was 480.

Turning to `O=C(O)c1ccc(-c2ccc(-c3cc4cc(Cl)ccc4o3)[nH]2)o1`, the “Relative IC50” value in experiment [2] was more than 1000.

As for `Cc1ccc(Cl)c2oc(-c3ccc(-c4ccc(C(=O)O)cc4Br)[nH]3)cc12`, the “Relative IC50” value in experiment [1] came out at 16.

`O=C(O)c1ccc(-c2ccc(-c3cc4cccc(Cl)c4o3)[nH]2)c(Cl)c1`: the “Relative IC50” value in experiment [1] is given as 300.

As for `O=C(O)c1ccc(-c2ccc(-c3cc4c(Cl)ccc(Cl)c4o3)[nH]2)s1`, the “Relative IC50” value in experiment [1] was 62.

Consider `Cc1ccc(C)c2oc(-c3ccc(-c4ccc5cc(C(=O)O)ccc5c4)[nH]3)cc12`, for which the “Relative IC50” value in experiment [2] is reported as more than 1000.

`Cc1cc(C)c2oc(-c3ccc(-c4ccc(C(=O)O)s4)[nH]3)cc2c1C`: the “Relative IC50” value in experiment [1] is given as 230.

For `Cc1cc(C)c2oc(-c3ccc(-c4ccc(C(=O)O)c5ccccc45)[nH]3)cc2c1C`, in experiment [2], the “Relative IC50” value is recorded as more than 1000.

Take `CCCc1cccc2cc(-c3ccc(-c4cc(C)c(C(=O)O)cc4C)[nH]3)oc12`: in experiment [2], the “Relative IC50” value is reported as more than 1000.

As for `O=C(O)c1cccc(-c2ccc(-c3cc4cccc(Cl)c4s3)[nH]2)c1`, in experiment [2], the “Relative IC50” value is recorded as more than 1000.

Turning to `O=C(O)c1ccc(-c2ccc(-c3cc4cccc(Cl)c4o3)[nH]2)c(F)c1`, the “Relative IC50” value in experiment [1] is 95.

`Cc1cc(-c2ccc(-c3cc4c(C)c(C)cc(C)c4o3)[nH]2)c(C)cc1C(=O)O`: in experiment [2], the “Relative IC50” value is on record as more than 1000.

As to `COc1cc(C(=O)O)ccc1-c1ccc(-c2cc3cccc(Cl)c3o2)[nH]1`, the “Relative IC50” value in experiment [1] turned out to be 170.

Take `CCCc1ccc(OC)c2cc(-c3ccc(-c4ccc(C(=O)O)c5ccccc45)[nH]3)oc12`: in experiment [2], the “Relative IC50” value is reported as more than 1000.

For the molecule `CCCc1ccc(OC)c2cc(-c3ccc(-c4ccc5cc(C(=O)O)ccc5c4)[nH]3)oc12`, in experiment [2], the “Relative IC50” value is reported as more than 1000.

For `CCc1ccc(OC)c2cc(-c3ccc(-c4ccc5cc(C(=O)O)ccc5c4)[nH]3)oc12`, in experiment [2], the “Relative IC50” value is given as more than 1000.

In the case of `Cc1cc(C)c2oc(-c3ccc(-c4ccc5cc(C(=O)O)ccc5c4)[nH]3)cc2c1C`, the “Relative IC50” value in experiment [2] was more than 1000.

For the molecule `O=C(O)c1ccc(-c2ccc(-c3cc4c(Cl)ccc(Cl)c4o3)[nH]2)c(F)c1`, the “Relative IC50” value in experiment [1] is on record as 64.

Regarding `CCCc1cccc2cc(-c3ccc(-c4ccc(C(=O)O)c5ccccc45)[nH]3)sc12`, the “Relative IC50” value in experiment [2] is more than 1000.

With `O=C(O)c1ccc(-c2ccc(-c3cc4cccc(Cl)c4o3)[nH]2)c(Br)c1`, in experiment [1], the “Relative IC50” value is given as 31.

For the molecule `Cc1ccc(C)c2oc(-c3ccc(-c4ccc(C(=O)O)cc4Cl)[nH]3)cc12`, the “Relative IC50” value in experiment [1] was determined as 23.

Regarding `CCCc1cc(OC)cc2cc(-c3ccc(-c4cc(C)c(C(=O)O)cc4C)[nH]3)oc12`, the “Relative IC50” value in experiment [2] is on record as more than 1000.

For the molecule `Cc1cc(-c2ccc(-c3cc4cc(Cl)ccc4o3)[nH]2)c(C)cc1C(=O)O`, the “Relative IC50” value in experiment [2] is listed as more than 1000.

For `COc1cc(C(=O)O)ccc1-c1ccc(-c2cc3c(C)ccc(C)c3o2)[nH]1`, the “Relative IC50” value in experiment [1] is given as 47.

Turning to `Cc1cc(-c2ccc(-c3cc4c(C)ccc(C)c4o3)[nH]2)c(C)cc1C(=O)O`, in experiment [2], the “Relative IC50” value is reported as more than 1000.

In the case of `Cc1cc(C)c2oc(-c3ccc(-c4ccc(C(=O)O)o4)[nH]3)cc2c1C`, in experiment [2], the “Relative IC50” value is recorded as more than 1000.

Regarding `CC1=C(/C=C/C(C)=C/C=C/C(C)=C/C(=O)O)C(C)(C)CCC1` [TRETINOIN], the results for the Relative IC50 in experiment [4] and in experiment [1] were 0.65 and 1, respectively.
